What was measured:
[1] = system: MDA-MB-468 xenograft tumors; test: Xenograft tumor model, breast cancer; assay type: in vivo, mice; details: 40 mg/kg twice daily, oral, vs vehicle
Procedure: FIGS. 4A-4H. Pharmacokinetics and anti-tumor growth activity of AOH1996 in vivo. FIG. 4A: After oral administration, the plasma concentrations of AOH1996 from three male and three female ES1^e/SCID mice at the indicated time points were averaged and graphed ±S.D. The inset contains PK parameters determined by a standard noncompartmental method. FIG. 4B: A similar PK study of AOH1996 was performed in dogs. FIGS. 4C-4E: Mice bearing the xenograft tumors of neuroblastoma (FIG. 4C: SK-N-BE(2)c), breast cancer (FIG. 4D: MDA-MB-468), and small-cell lung cancer (FIG. 4E: H82) were given vehicle only (black) or 40 mg/kg of AOH1996 (grey) twice daily immediately after the first measurement. Tumor sizes were measured by a dial caliper each week. Tumor volumes (0.4×L×W^2) were averaged and graphed ±S.E. (*, P<0.01). FIG. 4F: Animal body weight was monitored throughout the studies as an indicator of toxicity. […] FIG. 4G: The levels of phosphor-Chk1 (pChk1) and γH2A.X in SK-N-BE(2)c derived tumor samples were analyzed by IHC. […] The p values determined by the Log-rank (Mantel-Cox) test between combination treatment and each of the control groups are p=0.0003 (Combination vs. NoRx), p=0.005 (Combination vs. AOH1996 alone), and p=0.024 (Combination vs. CPT-11 alone).
In vivo tumor model. […] Tumor size and animal weight were measured weekly. […]

[2] = system: PCNA and MCM7 on chromatin, MDA-MB-468 cells; test: Cell fractionation, chromatin-bound PCNA and MCM7; assay type: cell-based, human; details: 5, 50, or 500 nM, 24 h
Procedure: FIGS. 7A-7E. Transcription dependent effect on DNA replication and damage. FIG. 7A: Left: Schematic of the cell fractionation procedure. Right: MDA-MB-468 cells were treated by increasing concentrations of AOH1996 (5, 50, or 500 nM) for 24 h. Cells treated with DMSO were used as control. Whole cell extract (WCE) and protein fractions associated with actively transcribed chromatin (CB:RNA+) or with low or non-transcribed chromatin (CB:RNA−) were analyzed by Western blot using antibodies against PCNA, CAF-1, and MCM7. FIG. 7B: Synchronized cancer cells were sequentially incubated in the presence of CldU (light grey) and IdU (dark grey) before and after AOH1996 treatment, respectively. […] Middle and Right: Lengths of CldU (light grey) and IdU (dark grey) incorporated DNA segments measured for more than 30 independent DNA strands from the indicated cancer cell type were averaged and graphed ±S.D. FIG. 7C: Whole cell lysates were extracted from SK-N-AS cells homozygous of the wildtype RPB1 allele or the APIM-mutant allele. Histone H2A.X and γH2A.X was analyzed by Western blot after treatment with or without AOH1996 overnight. FIG. 7D: Histone H2A.X and γH2A.X in whole cell lysates from SK-N-AS cells were analyzed by Western blot after treatment with 500 nM AOH1996 and/or 50 μM DRB overnight. […]

**Q.** Which results are given for `COc1cccc(Oc2ccccc2NC(=O)CNC(=O)c2cccc3ccccc23)c1` [AOH1996, N-(2-((2-(3-methoxyphenoxy)phenyl)amino)-2-oxoethyl)-1-naphthamide]?
**A.** tumor burden [1]: significantly reduced tumor burden; association of PCNA and MCM7 with chromatin [2]: caused dissociation of PCNA and MCM7 from the actively transcribed open chromatin regions

— patent publication US20250171404A1, “PCNA INHIBITORS AND USES THEREOF” (CITY OF HOPE, priority 2022, published 2025)
